Laboratory results published in a flash point compilation (Sun et al. 2020).

| Structure (SMILES) | flash point |
| --- | --- |
| CCc1ccccc1O [2-ethylphenol] | 85 °C |
| Cc1ccc(C)cc1 [p-xylene] | 25 °C |
| CCC(=O)OC(C)c1ccccc1 (stereo not given) [1-phenylethylpropionate] | 106 °C |
| CCCCCCCCCS [1-nonanethiol] | 79 °C |
| CCCCCCCl [1-chlorohexane] | 26 °C |
| CC(C)(C)c1ccccc1 [tert-butylbenzene] | 44 °C |
| N#CCc1ccccc1 [benzylcyanide] | 101 °C |
| CC1CCCCCCC1=O (stereo not given) [2-methylcyclooctanone] | 71 °C |
| Cc1cccc(C)c1 [m-xylene] | 25 °C |
| CCC(C)N (stereo not given) [sec-butylamine] | -19 °C |
| CCCCCCC(C)=O [2-octanone] | 56 °C |
| CCCCC(C)CC (stereo not given) [3-methylheptane] | 6 °C |
| C=CCC1CCCC1 [allylcyclopentane] | 12 °C |
| CC/C=C/CCC [trans-3-heptene] | -7 °C |
| C=CCC(C)CC (stereo not given) [4-methyl-1-hexene] | -15 °C |
| O=C1CCCC1 [cyclopentanone] | 26 °C |
| CCCCBr [1-bromobutane] | 10 °C |
| CC(=O)OC(C)=O [aceticanhydride] | 49 °C |
| CCC(C)C(C)(C)C (stereo not given) [2,2,3-trimethylpentane] | -3 °C |
| CCCCCCCCCCCCOC(C)=O [dodecylacetate] | 120 °C |
| CCCCCC(=O)CCC [4-nonanone] | 62 °C |

| Structure (SMILES) | flash point |
| --- | --- |
| C1CCCCCCC1 [cyclooctane] | 28 °C |
| c1ccc(Oc2ccccc2)cc1 [diphenylether] | 115 °C |
| CCc1ccc(C)cc1 [p-ethyltoluene] | 36 °C |
| CCCC(C)CO (stereo not given) [2-methyl-1-pentanol] | 51 °C |
| CCCCCCCC(C)C [2-methylnonane] | 38 °C |
| C=C(C)C(=C)C [2,3-dimethyl-1,3-butadiene] | -22 °C |
| CCc1ccc(C)cc1C [1-ethyl-2,4-dimethylbenzene] | 57 °C |
| C=Cc1ccc(C)cc1 [4-methylstyrene] | 46 °C |
| CN(C)c1ccccc1 [N,N-dimethylaniline] | 75 °C |
| CSSC [dimethyldisulfide] | 10 °C |
| CCCCS [1-butanethiol] | 2 °C |
| C1CCC(C2CCCCC2)CC1 [bicyclohexyl] | 92 °C |
| CCc1ccc(F)cc1 [1-ethyl-4-fluorobenzene] | 30 °C |
| Cn1cccc1 [1-methylpyrrole] | 15 °C |
| CC[N+](=O)[O-] [nitroethane] | 28 °C |
| c1ccncc1 [pyridine] | 17 °C |
| CCCCC(C)C(C)C (stereo not given) [2,3-dimethylheptane] | 15 °C |
| CCCCN [butylamine] | -7 °C |
| CN(C)CCO [2-dimethylaminoethanol] | 41 °C |
| C=CCCBr [4-bromo-1-butene] | 9 °C |
| C=C(C)CCl [3-chloro-2-methyl-1-propene] | -12 °C |

| Structure (SMILES) | flash point |
| --- | --- |
| C#CCCCCCCC [1-nonyne] | 33 °C |
| CCC(Br)CC [3-bromopentane] | 19 °C |
| Cc1cccc(I)c1 [1-iodo-3-methylbenzene] | 83 °C |
| BrC1CCCC1 [bromocyclopentane] | 35 °C |
| COC1C=CC(OC)O1 (stereo not given) [2,5-dimethoxy-2,5-dihydrofuran] | 47 °C |
| CCc1ccsc1 [3-ethylthiophene] | 23 °C |
| CC(C)C(C)(C)C(C)C [2,3,3,4-tetramethylpentane] | 11 °C |
| CCC=O [propanal] | -27 °C |
| O=[N+]([O-])C1CCCCC1 [nitrocyclohexane] | 81 °C |
| C=CC(=O)OCC [ethylacrylate] | 8 °C |
| C=CCCCCCCC [1-nonene] | 25 °C |
| CCC(C)CC(CC)CC (stereo not given) [3-ethyl-5-methylheptane] | 31 °C |
| C=C(C)C=O [2-methyl-2-propenal] | -15 °C |
| CCCCCCCc1ccccc1 [heptylbenzene] | 95 °C |
| CCCCCCCCCC(C)O (stereo not given) [2-undecanol] | 107 °C |
| CCCCCCBr [1-bromohexane] | 47 °C |
| CC(=O)OCCC(C)C [isopentylacetate] | 36 °C |
| CCCCCCCCCCCS [1-undecanethiol] | 109 °C |
| CC(C)C1CCCCC1=O (stereo not given) [2-isopropylcyclohexanone] | 65 °C |
| CCCCCCCCC(=O)CC [3-undecanone] | 89 °C |
| CCC(=O)Cc1ccccc1 [1-phenyl-2-butanone] | 91 °C |

Other lines, results leading:

| flash point | Structure (SMILES) |
| --- | --- |
| 123 °C | CC(C)c1cccc(C(C)C)c1N [2,6-diisopropylaniline] |
| 99 °C | CC(O)CO (stereo not given) [1,2-propanediol] |
| 35 °C | CC(C)C1CCCCC1 [isopropylcyclohexane] |
| 63 °C | CCc1cccc(C(C)C)c1 [1-ethyl-3-isopropylbenzene] |
| 62 °C | OCC1CCCC1 [cyclopentylmethanol] |
| 76 °C | CC(C)c1ccc(C(C)C)cc1 [1,4-diisopropylbenzene] |
| 26 °C | Cc1ccccn1 [2-picoline] |
| 40 °C | CCCC(Br)CC (stereo not given) [3-bromohexane] |
| 5 °C | C=CCCCCC=C [1,7-octadiene] |
| 6 °C | C=COC(=O)CC [vinylpropanoate] |
| 48 °C | CCCCC1CCCCC1 [butylcyclohexane] |
| 51 °C | COc1ccccc1C [2-methylanisole] |
| 24 °C | CCCC(=O)OC(C)C [isopropylbutanoate] |
| 28 °C | O=CC1CCCC1 [cyclopentanecarboxaldehyde] |
| -14 °C | CC(C)OC=O [isopropylformate] |
| 24 °C | CCC(C)NC(C)CC (stereo not given) [di-sec-butylamine] |
| 63 °C | Cc1cc(C)c(C)c(C)c1 [1,2,3,5-tetramethylbenzene] |
| 73 °C | OCCCCl [3-chloro-1-propanol] |
| -15 °C | CCCC(C)CC (stereo not given) [3-methylhexane] |
| 38 °C | CC(C)COC(=O)C(C)C [isobutyl2-methylpropanoate] |
| 1 °C | CCCC(C)Cl (stereo not given) [2-chloropentane] |

| flash point | Structure (SMILES) |
| --- | --- |
| 68 °C | CCCCCCCCS [1-octanethiol] |
| -45 °C | C/C=C/CC [trans-2-pentene] |
| -23 °C | CCN(C)CC [N-ethyl-N-methylethanamine] |
| 16 °C | C=CCI [3-iodo-1-propene] |
| -16 °C | CC1(C)CCCC1 [1,1-dimethylcyclopentane] |
| -46 °C | C/C=C\CC [cis-2-pentene] |
| -11 °C | C1=CC2C=CC1C2 [2,5-norbornadiene] |
| 38 °C | Cc1ccncc1 [4-picoline] |
| 74 °C | CCCCCCCCCN [nonylamine] |
| 54 °C | C=CC(=O)O [acrylicacid] |
| 51 °C | COC(CBr)OC [2-bromo-1,1-dimethoxyethane] |
| 11 °C | Cc1ccsc1 [3-methylthiophene] |
| 74 °C | CCCCCCCCCCl [1-chlorononane] |
| 15 °C | CCC(C(C)C)C(C)C [3-ethyl-2,4-dimethylpentane] |
| -4 °C | C=C(C)CC(C)(C)C [2,4,4-trimethyl-1-pentene] |
| 43 °C | CCC(=O)CC(C)CC (stereo not given) [5-methyl-3-heptanone] |
| 41 °C | SC1CCCCC1 [cyclohexanethiol] |
| 41 °C | C[C@@H]1CC(=O)C[C@H]1C (relative stereo) [trans-3,4-dimethylcyclopentanone] |
| 53 °C | CCCCCOC(=O)CC [pentylpropanoate] |
| 101 °C | CCCCC(=O)OC(=O)CCCC [pentanoicanhydride] |
| 23 °C | C=CCSCC=C [diallylsulfide] |

| flash point | Structure (SMILES) |
| --- | --- |
| 78 °C | CCCNCCO [(2-hydroxyethyl)propylamine] |
| -7 °C | CC(C)CC(C)(C)C [2,2,4-trimethylpentane] |
| 11 °C | CC(C)C(C)C(C)(C)C (stereo not given) [2,2,3,4-tetramethylpentane] |
| 88 °C | CCCCCCCCCOC=O [nonylformate] |
| 60 °C | CCCCC(=O)CCCC [5-nonanone] |
| 103 °C | CCC(C)CCC(=O)O (stereo not given) [4-methylhexanoicacid] |
| 64 °C | Clc1ccccn1 [2-chloropyridine] |
| -4 °C | CCC1CCCC1 [ethylcyclopentane] |
| 23 °C | C#CCCCCC#C [1,7-octadiyne] |
| 61 °C | CCCCC[N+](=O)[O-] [1-nitropentane] |
| 12 °C | C[C@@H]1CCCC[C@@H]1C [cis-1,2-dimethylcyclohexane] |
| 68 °C | CCCCC1CCCC1=O (stereo not given) [2-butylcyclopentanone] |
| 30 °C | CCCCCCS [1-hexanethiol] |
| 3 °C | COC(=O)C(C)C [methyl2-methylpropanoate] |
| 50 °C | CC(C)(C)Cc1ccccc1 [neopentylbenzene] |
| 52 °C | CCCC#CCCCCC [4-decyne] |
| 89 °C | CC(C)c1ccccc1O [2-isopropylphenol] |
| 79 °C | CCCCCCCI [1-iodoheptane] |
| 71 °C | CCCCCCC(=O)CCC [4-decanone] |
| -23 °C | CCCC(C)(C)C [2,2-dimethylpentane] |
